Values after ≈ are worked out from the molar mass of the structure shown.
Key:
Campylobacter sp. [1] = assay: Antibacterial activity against Campylobacter sp. assessed as growth inhibition at 0.03 ug/ml by broth microdilution method; type: functional
Campylobacter sp. [2] = assay: Antibacterial activity against Campylobacter sp. assessed as growth inhibition at 0.5 ug/ml by broth microdilution method; type: functional
Campylobacter sp. [3] = assay: Antibacterial activity against Campylobacter sp. assessed as growth inhibition at 1 ug/ml by broth microdilution method; type: functional
Escherichia coli [4] = assay: Antibacterial activity against Escherichia coli assessed as percent resistant isolates by broth microdilution method; type: functional
Salmonella enteritidis [5] = assay: Antibacterial activity against Salmonella enterica serovar Enteritidis by broth microdilution method; type: functional, Salmonella enterica subsp. enterica serovar Enteritidis
Salmonella enteritidis [6] = assay: Antibacterial activity against Salmonella enterica serovar Enteritidis assessed as percent susceptible isolates by broth microdilution method; type: functional, Salmonella enterica subsp. enterica serovar Enteritidis; details: pooled result: one value given for 5 cell lines, strains, targets or settings
Salmonella paratyphi = assay: Antibacterial activity against Salmonella enterica serovar Paratyphi assessed as percent susceptible isolates by broth microdilution method; type: functional, Salmonella enterica subsp. enterica serovar Paratyphi A
Shigella sonnei = assay: Antibacterial activity against Shigella sonnei by broth microdilution method; type: functional
Shigella flexneri = assay: Antibacterial activity against Shigella flexneri by broth microdilution method; type: functional
Shigella boydii = assay: Antibacterial activity against Shigella boydii by broth microdilution method; type: functional
[7] = system: Yersinia pseudotuberculosis; assay: Antibacterial activity against Yersinia pseudotuberculosis assessed as percent susceptible isolates by broth microdilution method; type: functional
Aeromonas hydrophila [8] = assay: Antibacterial activity against Aeromonas hydrophila by broth microdilution method; type: functional
Aeromonas hydrophila [9] = assay: Antibacterial activity against Aeromonas hydrophila assessed as percent susceptible isolates by broth microdilution method; type: functional
Aeromonas caviae = assay: Antibacterial activity against Aeromonas caviae assessed as percent susceptible isolates by broth microdilution method; type: functional
Aeromonas sobria = assay: Antibacterial activity against Aeromonas sobria assessed as percent resistant isolates by broth microdilution method; type: functional
Aeromonas veronii = assay: Antibacterial activity against Aeromonas veronii assessed as percent susceptible isolates by broth microdilution method; type: functional
Plesiomonas shigelloides [10] = assay: Antibacterial activity against Plesiomonas shigelloides by broth microdilution method; type: functional
Vibrio parahaemolyticus [11] = assay: Antibacterial activity against Vibrio parahaemolyticus assessed as percent susceptible isolates by broth microdilution method; type: functional
Vibrio parahaemolyticus [12] = assay: Antibacterial activity against Vibrio parahaemolyticus assessed as percent resistant isolates by broth microdilution method; type: functional
Vibrio alginolyticus = assay: Antibacterial activity against Vibrio alginolyticus assessed as percent susceptible isolates by broth microdilution method; type: functional
Vibrio fluvialis [13] = assay: Antibacterial activity against Vibrio fluvialis by broth microdilution method; type: functional
Vibrio fluvialis [14] = assay: Antibacterial activity against Vibrio fluvialis assessed as percent susceptible isolates by broth microdilution method; type: functional
Campylobacter jejuni = assay: Antibacterial activity against Campylobacter jejuni by broth microdilution method; type: functional
Campylobacter coli = assay: Antibacterial activity against Campylobacter coli by broth microdilution method; type: functional
Escherichia coli [15] = assay: Antibacterial activity against enterotoxigenic Escherichia coli assessed as percent resistant isolates by broth microdilution method; type: functional
Escherichia coli [16] = assay: Antibacterial activity against enteroaggregative Escherichia coli assessed as percent susceptible isolates by broth microdilution method; type: functional
Escherichia coli [17] = assay: Antibacterial activity against blood-borne Escherichia coli assessed as percent susceptible isolates by broth microdilution method; type: functional
Escherichia coli [18] = assay: Antibacterial activity against blood-borne Escherichia coli assessed as percent resistant isolates by broth microdilution method; type: functional
Escherichia coli [19] = assay: Antibacterial activity against Escherichia coli assessed as growth inhibition at =<0.002 ug/ml by broth microdilution method; type: functional
Escherichia coli [20] = assay: Antibacterial activity against Escherichia coli assessed as growth inhibition at 0.004 ug/ml by broth microdilution method; type: functional
Escherichia coli [21] = assay: Antibacterial activity against Escherichia coli assessed as growth inhibition at 0.008 ug/ml by broth microdilution method; type: functional
Escherichia coli [22] = assay: Antibacterial activity against Escherichia coli assessed as growth inhibition at 0.03 ug/ml by broth microdilution method; type: functional
Escherichia coli [23] = assay: Antibacterial activity against Escherichia coli assessed as growth inhibition at 0.25 ug/ml by broth microdilution method; type: functional
Salmonella sp. [24] = assay: Antibacterial activity against Salmonella sp. assessed as growth inhibition at 0.008 ug/ml by broth microdilution method; type: functional
Salmonella sp. [25] = assay: Antibacterial activity against Salmonella sp. assessed as growth inhibition at 0.03 ug/ml by broth microdilution method; type: functional
Salmonella sp. [26] = assay: Antibacterial activity against Salmonella sp. assessed as growth inhibition at 0.12 ug/ml by broth microdilution method; type: functional
Shigella sp. [27] = assay: Antibacterial activity against Shigella sp. assessed as growth inhibition at =<0.002 ug/ml by broth microdilution method; type: functional
Shigella sp. [28] = assay: Antibacterial activity against Shigella sp. assessed as growth inhibition at 0.06 ug/ml by broth microdilution method; type: functional
Yersinia sp. [29] = assay: Antibacterial activity against Yersinia sp. assessed as growth inhibition at =<0.002 ug/ml by broth microdilution method; type: functional
Yersinia sp. [30] = assay: Antibacterial activity against Yersinia sp. assessed as growth inhibition at 0.008 ug/ml by broth microdilution method; type: functional; details: Yersinia sp. (in: enterobacteria)
Yersinia sp. [31] = assay: Antibacterial activity against Yersinia sp. assessed as growth inhibition at 0.06 ug/ml by broth microdilution method; type: functional; details: Yersinia sp. (in: enterobacteria)
Yersinia sp. [32] = assay: Antibacterial activity against Yersinia sp. assessed as growth inhibition at 0.12 ug/ml by broth microdilution method; type: functional; details: Yersinia sp. (in: enterobacteria)
Aeromonas sp. [33] = assay: Antibacterial activity against Aeromonas sp. assessed as growth inhibition at =<0.002 ug/ml by broth microdilution method; type: functional
Aeromonas sp. [34] = assay: Antibacterial activity against Aeromonas sp. assessed as growth inhibition at 0.004 ug/ml by broth microdilution method; type: functional
Aeromonas sp. [35] = assay: Antibacterial activity against Aeromonas sp. assessed as growth inhibition at 0.12 ug/ml by broth microdilution method; type: functional
Aeromonas sp. [36] = assay: Antibacterial activity against Aeromonas sp. assessed as growth inhibition at 0.25 ug/ml by broth microdilution method; type: functional
Aeromonas sp. [37] = assay: Antibacterial activity against Aeromonas sp. assessed as growth inhibition at 1 ug/ml by broth microdilution method; type: functional
Aeromonas sp. [38] = assay: Antibacterial activity against Aeromonas sp. assessed as growth inhibition at =>4 ug/ml by broth microdilution method; type: functional
Plesiomonas shigelloides [39] = assay: Antibacterial activity against Plesiomonas shigelloides assessed as growth inhibition at 0.008 ug/ml by broth microdilution method; type: functional
Vibrio sp. [40] = assay: Antibacterial activity against Vibrio sp. assessed as growth inhibition at =<0.002 ug/ml by broth microdilution method; type: functional
Vibrio sp. [41] = assay: Antibacterial activity against Vibrio sp. assessed as growth inhibition at 0.016 ug/ml by broth microdilution method; type: functional
Vibrio sp. [42] = assay: Antibacterial activity against Vibrio sp. assessed as growth inhibition at 0.03 ug/ml by broth microdilution method; type: functional

SMILES: CC1Sc2c(C(=O)O)c(=O)c3cc(F)c(N4CCNCC4)cc3n21 (stereo unspecified) [ULIFLOXACIN]
- inhibition at 0.03 µg/mL (Campylobacter sp. [1]): 61%
- inhibition at 0.5 µg/mL (Campylobacter sp. [2]): 83%
- inhibition at 1 µg/mL (Campylobacter sp. [3]): 84%
- Activity (Escherichia coli [4]): 3%
- MIC50 (Salmonella enteritidis [5]): 8 ng/mL (≈ 0.0229 µM)
- MIC90 (Salmonella enteritidis [5]): 30 ng/mL (≈ 0.0859 µM)
- Activity (Salmonella enteritidis [6]): 100%
- Activity (Salmonella paratyphi): 100%
- MIC50 (Shigella sonnei): 4 ng/mL (≈ 0.0114 µM)
- MIC90 (Shigella sonnei): 8 ng/mL (≈ 0.0229 µM)
- MIC50 (Shigella flexneri): 4 ng/mL (≈ 0.0114 µM)
- MIC90 (Shigella flexneri): 8 ng/mL (≈ 0.0229 µM)
- MIC50 (Shigella boydii): 4 ng/mL (≈ 0.0114 µM)
- MIC90 (Shigella boydii): 8 ng/mL (≈ 0.0229 µM)
- Activity [7]: 100%
- MIC50 (Aeromonas hydrophila [8]): 4 ng/mL (≈ 0.0114 µM)
- MIC90 (Aeromonas hydrophila [8]): 60 ng/mL (≈ 0.172 µM)
- Activity (Aeromonas hydrophila [9]): 98%
- Activity (Aeromonas caviae): 98%
- Activity (Aeromonas sobria): 2%
- Activity (Aeromonas veronii): 98%
- MIC (Plesiomonas shigelloides [10]): 4 ng/mL (≈ 0.0114 µM)
- MIC50 (Plesiomonas shigelloides [10]): 4 ng/mL (≈ 0.0114 µM)
- Activity (Vibrio parahaemolyticus [11]): 100%
- Activity (Vibrio parahaemolyticus [12]): 0%
- Activity (Vibrio alginolyticus): 100%
- MIC50 (Vibrio fluvialis [13]): 16 ng/mL (≈ 0.0458 µM)
- MIC90 (Vibrio fluvialis [13]): 30 ng/mL (≈ 0.0859 µM)
- Activity (Vibrio fluvialis [14]): 100%
- MIC50 (Campylobacter jejuni): 30 ng/mL (≈ 0.0859 µM)
- MIC90 (Campylobacter jejuni): > 2000 ng/mL
- MIC50 (Campylobacter coli): 30 ng/mL (≈ 0.0859 µM)
- MIC90 (Campylobacter coli): > 2000 ng/mL
- Activity (Escherichia coli [15]): 0%
- Activity (Escherichia coli [16]): 100%
- Activity (Escherichia coli [17]): 90%
- Activity (Escherichia coli [18]): 10%
- inhibition (INH) (Escherichia coli [19]): 0%
- inhibition at 0.004 µg/mL (Escherichia coli [20]): 27%
- inhibition at 0.008 µg/mL (Escherichia coli [21]): 93%
- inhibition at 0.03 µg/mL (Escherichia coli [22]): 96%
- inhibition at 0.25 µg/mL (Escherichia coli [23]): 97%
- inhibition at 0.008 µg/mL (Salmonella sp. [24]): 65%
- inhibition at 0.03 µg/mL (Salmonella sp. [25]): 91%
- inhibition at 0.12 µg/mL (Salmonella sp. [26]): 100%
- inhibition (INH) (Shigella sp. [27]): 1%
- inhibition at 0.06 µg/mL (Shigella sp. [28]): 99%
- inhibition (INH) (Yersinia sp. [29]): 0%
- inhibition at 0.008 µg/mL (Yersinia sp. [30]): 56%
- inhibition at 0.06 µg/mL (Yersinia sp. [31]): 98%
- inhibition at 0.12 µg/mL (Yersinia sp. [32]): 100%
- inhibition (INH) (Aeromonas sp. [33]): 16%
- inhibition at 0.004 µg/mL (Aeromonas sp. [34]): 55%
- inhibition at 0.12 µg/mL (Aeromonas sp. [35]): 93%
- inhibition at 0.25 µg/mL (Aeromonas sp. [36]): 95%
- inhibition at 1 µg/mL (Aeromonas sp. [37]): 98%
- inhibition (INH) (Aeromonas sp. [38]): 100%
- inhibition at 0.008 µg/mL (Plesiomonas shigelloides [39]): 100%
- inhibition (INH) (Vibrio sp. [40]): 15%
- inhibition at 0.016 µg/mL (Vibrio sp. [41]): 65%
- inhibition at 0.03 µg/mL (Vibrio sp. [42]): 100%

— ChEMBL document CHEMBL1629662, “Antimicrobial activity of prulifloxacin tested against a worldwide collection of gastroenteritis-producing pathogens, including those causing traveler's diarrhea” (2009)
